Data on 25 molecules can be found in patent publication US10183936B2, “Hepatitis B core protein allosteric modulators” (priority 2014, dated 2019).

Series [1] has as its system HBV viral production in AD38 cells. The series can be described thus: Viral load production in AD38 cells by quantitative PCR of the HBV core sequence in supernatant. The following applies: Hepatitis B virus, 144 h; 10 μM compound, 6 days at 37° C., viral load in supernatant compared against DMSO control wells; read-out: AD38 Viral Load (CpAM/DMSO %) at 10 μM. In kind it is cell-based. The method in brief:
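AD38 cells seeded at 50,000/well, treated 6 days at 37° C with compound added as 10× solution in 10% DMSO. HBV core sequence in clarified supernatant quantified by TaqMan qPCR against known standards; viral load compared with DMSO control wells.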

Series [2] deals with AD38 cells. The series can be described thus: Viability of AD38 cells (Promega CellTiter-Glo) at the end of compound treatment. In kind it is cell-based. The following applies: 10 μM compound, 6 days, luminescence normalized against DMSO control wells (controls being 100%). The method, boiled down:
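AD38 cells seeded at 50,000/well received compound from a 10× solution in 10% DMSO and were incubated 6 days at 37° C. Viability was then read by CellTiter-Glo luminescence in tetracycline-free medium with 2% FBS and 1% DMSO, normalized to DMSO control wells (100%) and reported as percent viability.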

SMILES strings stand for the structures.

On to `COc1ncc(CNC(=O)c2ccc3c(c2)NC(=O)c2ccccc2S3)s1` [Compound 1612], for which the activity at 10 µM in series [1] was found to be 0%. The “AD38 Viability Normalized Result (CPAM/DMSO %) at 10 μM” value in series [2] is recorded as 112%.
Consider `Nc1ncc(CNC(=O)c2ccc3c(c2)NC(=O)c2ccccc2S3)s1` [Compound 1613], for which the activity at 10 µM in series [1] turned out to be 0%. Besides, in series [2], the “AD38 Viability Normalized Result (CPAM/DMSO %) at 10 μM” value amounted to 122%.
Taken in the same sequence, the figures for `CC(C)c1ncsc1CNC(=O)c1ccc2c(c1)NC(=O)c1ccccc1S2` [Compound 1614] were 2% and 45%.
Taken in the same sequence, the figures for `CC(=O)N1CCC(CNC(=O)c2ccc3c(c2)NC(=O)c2ccccc2S3)C1` (centres unmarked) [Compound 1615, N-((1-acetylpyrrolidin-3-yl)methyl)-11-oxo-10, 11-dihydrodibenzo [b,f] [1,4] thiazepine-8-carboxamide] were 32% and 123%.
`O=C(NCCc1cnco1)c1ccc2c(c1)NC(=O)c1ccccc1S2(=O)=O` [Compound 1616]: the activity at 10 µM in series [1] is 5%. Moreover, in series [2], the “AD38 Viability Normalized Result (CPAM/DMSO %) at 10 μM” value was determined as 115%.
Taken in the same sequence, the figures for `O=C(NCCc1cncs1)c1ccc2c(c1)NC(=O)c1ccccc1S2(=O)=O` [Compound 1617] were 1% and 118%.
As for `O=C(NCCc1ccc(-c2ccccc2)cc1)c1ccc2c(c1)NC(=O)c1ccccc1S2(=O)=O` [Compound 1618], the activity at 10 µM in series [1] is 0%. In series [2], the “AD38 Viability Normalized Result (CPAM/DMSO %) at 10 μM” value is given as 44%.
Taken in the same sequence, the figures for `CN(C)S(=O)(=O)c1ccc(CCNC(=O)c2ccc3c(c2)NC(=O)c2ccccc2S3(=O)=O)cc1` [Compound 1619] were 12% and 122%.
Taken in the same sequence, the figures for `O=C(NCc1ccccc1)c1ccc2c(c1)NC(=O)c1ccccc1S2(=O)=O` [Compound 1620] were 3% and 111%.
Taken in the same sequence, the figures for `Cc1cccc(CNC(=O)c2ccc3c(c2)NC(=O)c2ccccc2S3(=O)=O)c1` [Compound 1621] were 1% and 117%.
As for `O=C(NCc1cccc(F)c1)c1ccc2c(c1)NC(=O)c1ccccc1S2(=O)=O` [Compound 1622], in series [1], the activity at 10 µM turned out to be 0%. For the same molecule, the “AD38 Viability Normalized Result (CPAM/DMSO %) at 10 μM” value in series [2] was determined as 120%.
Turning to `O=C(NCc1ccc(F)cc1)c1ccc2c(c1)NC(=O)c1ccccc1S2(=O)=O` [Compound 1623], the activity at 10 µM in series [1] stood at 1%. Also, the “AD38 Viability Normalized Result (CPAM/DMSO %) at 10 μM” value in series [2] is on record as 128%.
As for `O=C(NCc1cccc(OC(F)(F)F)c1)c1ccc2c(c1)NC(=O)c1ccccc1S2(=O)=O` [Compound 1624], in series [1], the activity at 10 µM came to 1%. Moreover, in series [2], the “AD38 Viability Normalized Result (CPAM/DMSO %) at 10 μM” value was 136%.
Taken in the same sequence, the figures for `O=C(NCCOc1ccccc1)c1ccc2c(c1)NC(=O)c1ccccc1S2(=O)=O` [Compound 1625] were 2% and 111%.
For `O=C(NCCc1ccc(-n2nccn2)cc1)c1ccc2c(c1)NC(=O)c1ccccc1S2(=O)=O` [Compound 1626], in series [1], the activity at 10 µM turned out to be 0%. Besides, in series [2], the “AD38 Viability Normalized Result (CPAM/DMSO %) at 10 μM” value was 118%.
Taken in the same sequence, the figures for `O=C(NCc1ccc(-c2cncnc2)cc1)c1ccc2c(c1)NC(=O)c1ccccc1S2(=O)=O` [Compound 1627] were 5% and 115%.
`COC(=O)c1ccccc1-c1cccc(NC(=O)c2ccc3c(c2)NC(=O)c2ccccc2S3(=O)=O)c1` [Compound 1628]: the activity at 10 µM in series [1] came to 17%. In addition, the “AD38 Viability Normalized Result (CPAM/DMSO %) at 10 μM” value in series [2] came to 138%.
Taken in the same sequence, the figures for `O=C(Nc1cccc(-c2cccnc2)c1)c1ccc2c(c1)NC(=O)c1ccccc1S2(=O)=O` [Compound 1629] were 3% and 95%.
Taken in the same sequence, the figures for `CCc1ncsc1CNC(=O)c1ccc2c(c1)NC(=O)c1ccccc1S2` [Compound 1631] were 9% and 112%.
Taken in the same sequence, the figures for `O=C(NCc1scnc1Cl)c1ccc2c(c1)NC(=O)c1ccccc1S2` [Compound 1632] were 2% and 122%.
As to `Cl.O=C(NCC1CCCN1)c1ccc2c(c1)NC(=O)c1ccccc1S2` (centres unmarked) [Compound 1633, 11-oxo-N-(pyrrolidin-2-ylmethyl)-10, 11-dihydrodibenzo [b,f] [1,4] thiazepine-8-carboxamide hydrochloride], the activity at 10 µM in series [1] was 66%. Further, the “AD38 Viability Normalized Result (CPAM/DMSO %) at 10 μM” value in series [2] is 124%.
Taken in the same sequence, the figures for `O=C(Nc1nccs1)c1ccc2c(c1)NC(=O)c1ccccc1S2(=O)=O` [Compound 1634] were 45% and 125%.
Taken in the same sequence, the figures for `O=C(NCc1cnc(-c2ccccc2)nc1)c1ccc2c(c1)NC(=O)c1ccccc1S2(=O)=O` [Compound 1635] were 1% and 93%.
For `O=C(NCCC1CCCO1)c1ccc2c(c1)NC(=O)c1ccccc1S2(=O)=O` (centres unmarked) [Compound 1636], in series [1], the activity at 10 µM was 0%. Besides, the “AD38 Viability Normalized Result (CPAM/DMSO %) at 10 μM” value in series [2] is 111%.
For the molecule `O=C(Nc1nc2ccc(F)cc2s1)c1ccc2c(c1)NC(=O)c1ccccc1S2(=O)=O` [Compound 1637], in series [1], the activity at 10 µM came to 32%. Also, the “AD38 Viability Normalized Result (CPAM/DMSO %) at 10 μM” value in series [2] was found to be 123%.
